Source: paper PMC9853864, “Nonspecific Binding of Adenosine Tripolyphosphate and Tripolyphosphate Modulates the Phase Behavior of Lysozyme” (Journal of the American Chemical Society, 2023)
pKd: −log10 of the molar value.

Biological target: T1, hen egg-white lysozyme (HEWL); chicken egg lysozyme (Gallus gallus, UniProt P00698)
T1 construct: gene LYZ
Assay: 1H NMR titration, Trp imino CSP (W62, W111, W123), […] fit
Assay type: binding

T1 sequence (P00698 19-147): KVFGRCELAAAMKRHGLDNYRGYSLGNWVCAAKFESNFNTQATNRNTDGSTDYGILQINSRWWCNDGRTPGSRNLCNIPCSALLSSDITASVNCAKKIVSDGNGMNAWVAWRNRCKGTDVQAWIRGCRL

- pKd: ~3.00
SMILES: O=P(O)(O)OP(=O)(O)OP(=O)(O)O [TPP]
